The values below come from patent US20220098162A1, “APHTHYLAMINE COMPOUND AND BIOLOGICALLY ACCEPTABLE SALT THEREOF, PREPARATION METHOD THEREFOR, AND APPLICATION THEREOF” (Henan Radiomedical Science and Technology Co., Ltd, priority 2019, published 2022).

Holding throughout (format): cell-based
For one assay, the system named is MCF-7 cells. Briefly: MTT experiment, MCF-7 cells. As to conditions: Homo sapiens, MCF7; MCF-7, MTT, 48 hours, hydrochloride salt. How it is done:
(§1) Experiment on Inducing Apoptosis of Breast Cancer, Colon Cancer and Lung Cancer Cancer Cells
(§2) Method: collecting logarithmic growth phase MDA-MB-231, MCF-7, HCT-116, PC9-AR, PC9-GR, PC9 cells, counting, adjusting the cell suspension concentration to 50000 cells/mL, adding 100 ul cell suspension to each well, that is, 5000 cells per well, and adding the above cancer cells to the hydrochloride of the naphthylamine compounds of 1a and 3a of the invention, to enable the final concentration of the hydrochloride of the naphthylamine compound in the system to be several gradients of 0.1, 0.3, 1, 3, 10, 30, 100, 300 (μmol/L), and continuing culturing for 48 hours; after treating with drug, adding 50 μL of Thiazole Blue reagent (1 mg/mL) to each well, incubating at 37° C. for 4 hours, shaking the plate to discard the liquid in the well, draining the water, absorbing the remaining liquid with filter paper, and then adding 100 μL of dimethyl sulfoxide; reacting on a horizontal shaker for 7-8 minutes, until the blue-violet crystals are completely dissolved; reading the value with a microplate reader, measuring the OD value at the absorption wavelength of 570 nm, recording the result. […]

In a further assay the test system is MDA-MB-231 cells. The experiment in a line: MTT experiment, MDA-MB-231 cells. The note with it: Homo sapiens; MDA-MB-231, MTT, 48 hours, hydrochloride salt. As to the method: as §1, §2
The next assay relates to HCT-116 cells. The experiment in a line: MTT experiment, HCT-116 cells. The note with it: Homo sapiens; HCT-116, MTT, 48 hours, hydrochloride salt. As to the method:
as §1, §2

Another assay relates to PC9AR cells. Briefly: MTT experiment, PC9-AR cells. The note with it: 48 hours, hydrochloride salt. How it is done:
as §1, §2

The next assay has as its system PC9GR cells. The experiment in a line: MTT experiment, PC9-GR cells. As to conditions: 48 hours, hydrochloride salt. As to the method: as §1, §2
Another assay deals with PC9 cells. Briefly: MTT experiment, PC9 cells. As to conditions: Homo sapiens, PC-9, 48 hours, hydrochloride salt. How it is done: as §1, §2
The test system of a further assay is p-STAT3 in HCC827 cells. The experiment in a line: Westernblot experiment, STAT3 and p-STAT3 in IL-6 stimulated HCC827 cells. As to conditions: HCC827, 10, 30, 100 and 300 μmol/L, IL-6 30 ng/mL. As to the method:
(1) Taking HCC827 cells in logarithmic growth phase, digesting them with trypsin, preparing a single cell suspension with a density of 300,000 cells/mL with RPMI-1640 medium containing 10% fetal bovine serum, and adding 2 mL of cell suspension to each well to inoculate a 6-well cell culture plate.
(2) Incubating in a 37° C., 5% CO2 incubator. After the cells adhere to the wall, adding the experimental group with different concentrations of the drug SMY002 (3a), and the concentration gradients are: 10, 30, 100 and 300 μmol/L; adding 30 μL of interleukin-6 (IL-6) one hour later at a concentration of […] to stimulate the cells, and the final concentration of interleukin-6 (IL-6) is 30 ng/mL.
(3) After continuing to culture for 0.5 h, lysing the cells with RIPA lysis buffer to collect proteins. […]
(4) Transferring the cell supernatant to a clean centrifuge tube. Dividing the cell supernatant into two parts: taking 5 μL and add it to a 1.5 mL centrifuge tube for BCA to measure the protein content, then adding 45 μL of 1× phosphate buffered saline (PBS) and mixing well for later use; quantitatively taking 140 μL of the remaining cell supernatant, adding 35 μL of 5×SDS loading buffer, boiling in boiling water for 8 minutes after mixing, and storing in a refrigerator at −20° C. after centrifugation. […]

pIC50: −log10 of the molar value. Structures can show the parent of a compound that is named as a salt.

Usually pIC50 stands for the IC50 on a negative log10 scale, so that one unit is a factor of ten. Turning to `Nc1ccc(OCc2ccc(OCCN3CCCCC3)cc2)c2ccccc12` [SMY002 (3a), 4-(4-(2-(piperidin-1-yl)ethoxy)benzyloxy)-1-naphthylamine dihydrochloride], the negative logarithm of the IC50 (pIC50) in the assay on MCF-7 cells was 5.69; with MDA-MB-231 cells, 5.74; in the assay with HCT-116 cells it was 5.70; in the assay with PC9AR cells, 6.18; with PC9GR cells, 6.33; in the assay with PC9 cells, 6.33. For the same molecule, the “amount of STAT3 protein expressed (Westernblot)” value in the assay with p-STAT3 in HCC827 cells is “remains unchanged”. In the assay with p-STAT3 in HCC827 cells, the “expression of p-STAT3 (Westernblot)” value is given as “significantly inhibits”.

As to `Nc1ccc(OC(=O)c2ccc(OCCN3CCCCC3)cc2)c2ccccc12` [SMY001 (1a), 4-(2-(piperidin-1-yl)ethoxy) benzoic acid-4-amino-1-naphthyl ester dihydrochloride], the pIC50 was 4.83 in the assay on MDA-MB-231 cells; 4.60 in the assay on HCT-116 cells; 4.41 with PC9AR cells; 4.52 in the assay on PC9GR cells; 4.57 in the assay on PC9 cells.
